Measurements from patent US8809352B2, “Sulfonamides as inhibitors of Bcl-2 family proteins for the treatments of cancer” (Novartis AG, priority 2009, dated 2014).

Biological target: BCL2 (Homo sapiens, UniProt P10415)
Test: Biacore SPR solution inhibition assay of BCL-2 binding to peptide derivatized sensor surfaces
Details: SPR competition; 56 nM BCL2 pre-equilibrated with compound one hour; biotinylated BAK, BAD and NOXA peptide surfaces; 25° C.
Text: The present method includes utility of a Surface plasmon resonance (SPR)-based biosensor (Biacore™ GE Healthcare, Uppsala, Sweden) to characterize BCL-2 inhibitors.
Biacore™ utilizes the phenomenon of surface plasmon resonance (SPR) to detect and measure binding interactions. In a typical Biacore experiment, one of the interacting molecules (ligand) is immobilized on a flexible dextran matrix while the interacting partner (analyte) is allowed to flow across that surface. A binding interaction results in an increase in mass on the sensor surface and a corresponding direct change in the refractive index of the medium in the vicinity of the sensor surface. Changes in refractive index or signal are recorded in resonance units (R.U.) Signal changes due to association and dissociation of complexes are monitored in a non-invasive manner, continuously and in real-time, the results of which are reported in the form of a sensorgram. The SPR assay is configured to examine solution inhibition of BCL-2 binding to peptide derivatized sensor surfaces to generate […] values as a measure of inhibitor potency.
Biacore™ A100 (GE Healthcare, Uppsala, Sweden) was used to conduct all experiments reported herein. Sensor surface preparation and all interaction analyses experiments were performed at 25° C. Reagents were purchased from GE Healthcare. Running buffer containing 10 mM Hepes, pH7.4, 150 mM sodium chloride, 1.25 mM Dithiothreitol, 3% Dimethyl sulfoxide and 0.05% polysorbate 20 were utilized throughout all analyses.
Biotinylated BAK, BAD and NOXA peptides were diluted to 10 nM in running buffer and captured onto a sensor surface pre-derivatized with streptavidin (sensor chip SA) to peptide surface densities in the range 50-100 R.U. Peptide captured surfaces were blocked with 500 μM PEO2-Biotin.
Interaction analyses were performed by first equilibrating each sample within a 6 point three fold compound dilution series in the range 16 μM to 0.004 nM with 56 nM BCL2 for one hour during instrument start-up procedures. Protein compound mixtures were then injected over each peptide surface in parallel for 60 seconds at a flow-rate of 30 μL/min. 56 nM BCL2 control samples were also prepared and run at regular intervals during the assay. Surface regeneration was performed at the end of each analysis cycle by two 30 second injections of 10 mM Glycine, pH 2.5, 1M Sodium Chloride, 0.05% polysorbate 20. Samples and control compound samples were run in duplicate and controls are also run at regular intervals during the assay to monitor surface and assay performance.
Data analyses are carried out using Biacore™ A100 evaluation software v1.1 to validate assay quality. Binding level report points were used relative to BCL2 control samples to calculate % inhibition values for each compound protein mixture.

BCL2, sequence (P10415 whole entry): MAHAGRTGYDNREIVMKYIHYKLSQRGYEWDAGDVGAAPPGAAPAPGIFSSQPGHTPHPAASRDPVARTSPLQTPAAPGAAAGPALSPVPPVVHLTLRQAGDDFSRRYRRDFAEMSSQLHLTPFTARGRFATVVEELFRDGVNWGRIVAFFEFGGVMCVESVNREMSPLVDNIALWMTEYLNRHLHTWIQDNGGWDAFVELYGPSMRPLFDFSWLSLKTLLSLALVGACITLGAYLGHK

| IC50 | Structure (SMILES) |
| --- | --- |
| 36 nM | CN(C)CC[C@H](CSc1ccccc1)Nc1ccc(S(=O)(=O)Nc2ncnc3c2CCN(C2CCN(Cc4ccccc4-c4ccc(Cl)cc4)CC2F)C3)cc1S(=O)(=O)C(F)(F)F (stereo partly drawn) [Example 66, N-(7-(1-((4′-chlorobiphenyl-2-yl)methyl)-3-fluoropiperidin-4-yl)-5,6,7,8tetrahydropyrido[3,4-d]pyrimidin-4-yl)-4-((R)-4-(dimethylamino)-1-(phenylthio)butan-2-ylamino)-3-(trifluoromethylsulfonyl)benzenesulfonamide] |
| 51 nM | CN(C)CC[C@H](CSc1ccccc1)Nc1ccc(S(=O)(=O)Nc2nc(C(F)(F)F)nc3c2CCN(C2CCN(CC4=C(c5ccc(Cl)cc5)CCC(C)(C)C4)CC2)C3)cc1S(=O)(=O)C(F)(F)F [Example 70] |
| 225 nM | [2H]C1(N2CCc3c(ncnc3NS(=O)(=O)c3ccc(N[C@H](CCN4CC5CCC(C4)O5)CSc4ccccc4)c(S(=O)(=O)C(F)(F)F)c3)C2)CCN(Cc2cc(F)ccc2-c2ccc(Cl)cc2)CC1 [Example 80, 4-((2R)-4-(8-oxa-3-azabicyclo[3.2.1]octan-3-yl)-1-(phenylthio)butan-2-ylamino)-N-(7-(1-((4′-chloro-4-fluorobiphenyl-2-yl)methyl)-4-deuteropiperidin-4-yl)-5,6,7,8-tetrahydropyrido[3,4-d]pyrimidin-4-yl)-3-(trifluoromethylsulfonyl)benzenesulfonamide] |
| 41 nM | [2H]C1(N2CCc3c(ncnc3NS(=O)(=O)c3ccc(N[C@H](CCN4CCOCC4)CSc4ccccc4)c(S(=O)(=O)C(F)(F)F)c3)C2)CCN(CC2=C(c3ccc(Cl)cc3)CC(C)(C)CC2)CC1 [Example 91, (R)-N-(7-(1-((2-(4-chlorophenyl)-4,4-dimethylcyclohex-1-enyl)methyl)-4-deuteropiperidin-4-yl)-5,6,7,8-tetrahydropyrido[3,4-d]pyrimidin-4-yl)-4-(4-morpholino-1-(phenylthio)butan-2-ylamino)-3-(trifluoromethylsulfonyl)benzenesulfonamide] |
| 100 nM | CN(C)CC[C@H](CSc1ccccc1)Nc1ccc(S(=O)(=O)Nc2ncnc3c2CCN(C2CCN(Cc4ccccc4-c4ccc(Cl)cc4)CC2)C3)cc1[N+](=O)[O-] [Example 1, N-{7-[1-(4′-Chloro-biphenyl-2-ylmethyl)-piperidin-4-yl]-5,6,7,8-tetrahydro-pyrido[3,4-d]pyrimidin-4-yl}-4-((R)-3-dimethylamino-1-phenylsulfanylmethyl-propylamino)-3-nitro-benzenesulfonamide] |
| 49 nM | CN(C)CC[C@H](CSc1ccccc1)Nc1ccc(S(=O)(=O)Nc2ncnc3c2CCN(C2CCN(Cc4ccccc4-c4cccc(Cl)c4)CC2)C3)cc1S(=O)(=O)C(F)(F)F [Example 97, N-{7-[1-(3′-Chloro-biphenyl-2-ylmethyl)-piperidin-4-yl]-5,6,7,8-tetrahydro-pyrido[3,4-d]pyrimidin-4-yl}-4-((R)-3-dimethylamino-1-phenylsulfanylmethyl-propylamino)-3-trifluoromethanesulfonyl-benzenesulfonamide] |
| 31 nM | CN(C)CC[C@H](CSc1ccccc1)Nc1ccc(S(=O)(=O)Nc2nc(Cl)nc3c2CCN(C2CCN(Cc4ccccc4-c4ccc(Cl)cc4)CC2)C3)cc1S(=O)(=O)C(F)(F)F [Example 50, (R)-N-(2-chloro-7-(1-((4′-chlorobiphenyl-2-yl)methyl)piperidin-4-yl)-5,6,7,8-tetrahydropyrido[3,4-d]pyrimidin-4-yl)-4-(4-(dimethylamino)-1-(phenylthio)butan-2-ylamino)-3-(trifluoromethylsulfonyl)benzenesulfonamide] |
| 70 nM | CN(C)CC[C@H](CSc1ccccc1)Nc1ccc(S(=O)(=O)Nc2ncnc3c2CCN(C2CCC(O)(Cc4ccccc4-c4ccc(Cl)cc4)CC2)C3)cc1S(=O)(=O)C(F)(F)F (mixture of isomers) [Example 64, (R)-N-(7-(4-((4′-chlorobiphenyl-2-yl)methyl)-4-hydroxycyclohexyl)-5,6,7,8-tetrahydropyrido[3,4-d]pyrimidin-4-yl)-4-(4-(dimethylamino)-1-(phenylthio)butan-2-ylamino)-3-(trifluoromethylsulfonyl)benzenesulfonamide] |
| 37 nM | CN(C)CC[C@H](CSc1ccccc1)Nc1ccc(S(=O)(=O)Nc2ncnc3c2CCN(C2CCN(Cc4ccccc4-c4ccc(C(F)(F)F)cc4)CC2)C3)cc1S(=O)(=O)C(F)(F)F [Example 99, (R)-4-(4-(dimethylamino)-1-(phenylthio)butan-2-ylamino)-N-(7-(1-((4′-(trifluoromethyl)biphenyl-2-yl)-methyl)piperidin-4-yl)-5,6,7,8-tetrahydropyrido[3,4-d]pyrimidin-4-yl)-3-(trifluoromethylsulfonyl)benzenesulfonamide] |
| 73 nM | CN(C)CC[C@H](CSc1ccccc1Cl)Nc1ccc(S(=O)(=O)Nc2nc(C(F)(F)F)nc3c2CCN(C2CCN(Cc4ccccc4-c4ccc(Cl)cc4)CC2)C3)cc1S(=O)(=O)C(F)(F)F [Example 33, (R)-N-(7-(1-((4′-chlorobiphenyl-2-yl)methyl)piperidin-4-yl)-2-(trifluoromethyl)-5,6,7,8-tetrahydropyrido[3,4-d]pyrimidin-4-yl)-4-(1-(2-chlorophenylthio)-4-(dimethylamino)butan-2-ylamino)-3-(trifluoromethylsulfonyl)benzenesulfonamide] |
| 194 nM | O=S(=O)(Nc1nnc2n1CCN(C1CCN(Cc3ccccc3-c3ccc(Cl)cc3)CC1)CC2)c1ccc(N[C@H](CCN2CCOCC2)CSc2ccccc2)c(S(=O)(=O)C(F)(F)F)c1 [Example 92, N-{6-[1-(4′-Chloro-biphenyl-2-ylmethyl)-piperidin-4-yl]-5,6,7,8-tetrahydro-4H-1,2,3a,6-tetraaza-azulen-3-yl}-4-((R)-3-morpholin-4-yl-1-phenylsulfanylmethyl-propylamino)-3-trifluoromethanesulfonyl-benzenesulfonamide] |
| 47 nM | CN(C)CC[C@H](CSc1ccccc1)Nc1ccc(S(=O)(=O)Nc2nc(C(F)(F)F)nc3c2CCN(C2CCN(Cc4ccccc4-c4ccc(Cl)cc4)CC2F)C3)cc1S(=O)(=O)C(F)(F)F (stereo partly drawn) [Example 69, N-(7-(1-((4′-chlorobiphenyl-2-yl)methyl)-3-fluoropiperidin-4-yl)-2-(trifluoromethyl)-5,6,7,8-tetrahydropyrido[3,4-d]pyrimidin-4-yl)-4-((R)-4-(dimethylamino)-1-(phenylthio)butan-2-ylamino)-3-(trifluoromethylsulfonyl)benzenesulfonamide] |
| 99 nM | CC(c1ccccc1-c1ccc(Cl)cc1)N1CCC(N2CCc3c(nc(C(F)(F)F)nc3NS(=O)(=O)c3ccc(N[C@H](CCN(C)C)CSc4ccccc4Cl)c(S(=O)(=O)C(F)(F)F)c3)C2)CC1 (stereo partly drawn) [Example 34, N-(7-(1-(1-(4′-chlorobiphenyl-2-yl)ethyl)piperidin-4-yl)-2-(trifluoromethyl)-5,6,7,8-tetrahydropyrido[3,4-d]pyrimidin-4-yl)-4-((R)-1-(2-chlorophenylthio)-4-(dimethylamino)butan-2-ylamino)-3-(trifluoromethylsulfonyl)benzenesulfonamide] |
| 24 nM | CN(C)CC[C@H](CSc1ccccc1)Nc1ccc(S(=O)(=O)Nc2nnc3n2CCN(C2CCN(Cc4ccccc4-c4ccc(Cl)cc4)CC2)CC3)cc1S(=O)(=O)C(F)(F)F [Example 93, N-{6-[1-(4′-Chloro-biphenyl-2-ylmethyl)-piperidin-4-yl]-5,6,7,8-tetrahydro-4H-1,2,3a,6-tetraaza-azulen-3-yl}-4-((R)-3-dimethylamino-1-phenyl-sulfanylmethyl-propylamino)-3-trifluoromethanesulfonyl-benzenesulfonamide] |
| 84 nM | CC(c1cc(F)ccc1-c1ccc(Cl)cc1)N1CCC(N2CCc3c(ncnc3NS(=O)(=O)c3ccc(N[C@H](CCN4CCOCC4)CSc4ccccc4)c(S(=O)(=O)C(F)(F)F)c3)C2)CC1 (stereo partly drawn) [Example 31, N-(7-(1-(1-(4′-chloro-4-fluorobiphenyl-2-yl)ethyl)piperidin-4-yl)-5,6,7,8-tetrahydropyrido[3,4-d]pyrimidin-4-yl)-4-((R)-4-morpholino-1-(phenylthio)butan-2-ylamino)-3-(trifluoromethylsulfonyl)benzenesulfonamide] |
| 206 nM | CC1CC(N2CCc3c(ncnc3NS(=O)(=O)c3ccc(N[C@H](CCN4CCOCC4)CSc4ccccc4)c(S(=O)(=O)C(F)(F)F)c3)C2)CCN1CC1=C(c2ccc(Cl)cc2)CC(C)(C)CC1 (stereo partly drawn) [Example 27, N-(7-(1-((2-(4-chlorophenyl)-4,4-dimethylcyclohex-1-enyl)methyl)-2-methylpiperidin-4-yl)-5,6,7,8-tetrahydropyrido[3,4-d]pyrimidin-4-yl)-4-((R)-4-morpholino-1-(phenylthio)butan-2-ylamino)-3-(trifluoromethylsulfonyl)benzenesulfonamide] |
